Results on 25 molecules are retold here after US6649595B2, “Regulation of biological events using novel compounds” (ARIAD Gene Therapeutics, Inc., priority 1995, dated 2003).

Like-named read-outs stand apart in the source and are kept apart here.

The test has as its target T1, FKBPwt (Homo sapiens, UniProt P62942).
T1 construct: made in house
Nature of the test: Competitive fluorescence polarization (FP) binding assay of rapalogs to FKBP. Conditions: for fold loss in affinity (vs rapamycin): C24 analogs.

Where [1] appears, read: =IC50/IC50 of rapamycin, Table 4.
[2] abbreviates: rapamycin C24 analogs, Table 4, read-out: FKBPwt FP binding assay IC50.
The mark [3] stands for this setting: =IC50/IC50 of rapamycin, C7 rapalogs.
The mark [4] stands for this setting: C7 rapalogs, read-out: FKBPwt FP binding assay IC50.
Setting [5] is: FKBPwt FP binding assay IC50 (nM), C7 rapalogs.
Where [6] appears, read: FKBPwt FP binding assay IC50 (nM).

T1 sequence (P62942 whole entry): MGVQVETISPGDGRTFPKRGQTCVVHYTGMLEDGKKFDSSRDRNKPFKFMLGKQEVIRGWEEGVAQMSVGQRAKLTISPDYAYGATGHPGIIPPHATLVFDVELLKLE
Description: Serial 10-fold dilutions of each analog were prepared in 100% ethanol in glass vials and stored on ice. All other manipulations were performed at room temperature. […] Finally, a probe solution was prepared containing 10 nM AP1491 in 0.1% ethanol/FP buffer, and 100 μl added to each well with mixing.
The plates were stored covered in the dark for approximately 30 min to permit equilibration and then the fluorescence polarization of the sample in each well read on a Jolley FPM-2 FP plate reader (Jolley Consulting and Research, Inc., Grayslake, Ill.) in accordance with the manufacturer's recommendations. The mean polarization (mP units)
for each competitor concentration was usually converted to % total binding by reference to the control values and plotted (y) vs. log molar final concentration of competitor (x). Non-linear least square analysis was used to fit the curve and extract the IC50 using the following equation:
y=M1+(M4−M1)/(1+exp(M2*(M3−x)))
where M3 is the IC50. For incomplete curves the IC50 was determined by interpolation.

The term IC50 denotes the midpoint of a concentration-inhibition curve. Regarding `CON=C1CC(C(C)CC2CCC(O)C(OC)C2)OC(=O)C2CCCCN2C(=O)C(=O)C2(O)OC(CCC2C)CC(OC)C(C)=CC=CC=CC(C)CC(C)C(=O)C(OC)C(O)C(C)=CC1C` (single isomer, unassigned) [Compound 6, Rapamycin (E and Z)-24-(O-methyloxime)], the “fold loss in affinity (vs rapamycin)” value under setting [1] amounted to 190. In addition, under setting [2], the IC50 amounted to 438 nM.

For `COC1CC2CCC(C)C(O)(O2)C(=O)C(=O)N2CCCCC2C(=O)OC(C(C)CC2CCC(O)C(OC)C2)CC(=NOCC(=O)O)C(C)C=C(C)C(O)C(OC)C(=O)C(C)CC(C)C=CC=CC=C1C` (single isomer, unassigned) [Compound 13, Rapamycin (E and Z)-24-(O-carboxymethyloxime)], the “fold loss in affinity (vs rapamycin)” value under setting [1] came out at 3461. The IC50 under setting [2] came out at 7960 nM.

In the case of `COC1CC2CCC(C)C(O)(O2)C(=O)C(=O)N2CCCCC2C(=O)OC(C(C)CC2CCC(O)C(OC)C2)CC(=NOCC(=O)O)C(C)C=C(C)C(O)C(OC)C(=O)C(C)CC(C)C=CC=CC=C1C` (single isomer, unassigned) [Compound 14, Rapamycin (E and Z)-24-(O-carboxymethyloxime)], the “fold loss in affinity (vs rapamycin)” value under setting [1] was found to be 1022. Further, under setting [2], the IC50 was 2350 nM.

For `COC1CC2CCC(C)C(O)(O2)C(=O)C(=O)N2CCCCC2C(=O)OC(C(C)CC2CCC(O)C(OC)C2)CC(=NOCC(N)=O)C(C)C=C(C)C(O)C(OC)C(=O)C(C)CC(C)C=CC=CC=C1C` (single isomer, unassigned) [Compound 15, Rapamycin (E and Z)-24-(O-carboxamidomethyloxime)], the “fold loss in affinity (vs rapamycin)” value under setting [1] stood at 500. Moreover, the IC50 under setting [2] is 1150 nM.

Take `COC1CC2CCC(C)C(O)(O2)C(=O)C(=O)N2CCCCC2C(=O)OC(C(C)CC2CCC(O)C(OC)C2)CC(=NOCC(N)=O)C(C)C=C(C)C(O)C(OC)C(=O)C(C)CC(C)C=CC=CC=C1C` (single isomer, unassigned) [Compound 16, Rapamycin (E and Z)-24-(O-carboxamidomethyloxime)]: under setting [1], the “fold loss in affinity (vs rapamycin)” value is recorded as 88.7. Moreover, the 50% inhibitory concentration (IC50) under setting [2] was 204 nM.

Take `COc1ccc(C2CC3CCC(C)C(O)(O3)C(=O)C(=O)N3CCCCC3C(=O)OC(C(C)CC3CCC(O)C(OC)C3)CC(=O)C(C)C=C(C)C(O)C(OC)C(=O)C(C)CC(C)C=CC=CC=C2C)c(OC)c1` (single isomer, unassigned) [Compound 42]: the “fold loss in affinity (cf rapamycin)” value under setting [3] stood at 1.0. The IC50 under setting [4] stood at 2.2 nM.

With `COc1ccc(C2CC3CCC(C)C(O)(O3)C(=O)C(=O)N3CCCCC3C(=O)OC(C(C)CC3CCC(O)C(OC)C3)CC(=O)C(C)C=C(C)C(O)C(OC)C(=O)C(C)CC(C)C=CC=CC=C2C)c(OC)c1` (single isomer, unassigned) [Compound 43], the “fold loss in affinity (cf rapamycin)” value under setting [3] came out at 8.7. The IC50 under setting [4] came out at 20 nM.

For `CCO/N=C1/C[C@@H]([C@H](C)C[C@@H]2CC[C@@H](O)[C@H](OC)C2)OC(=O)[C@@H]2CCCCN2C(=O)C(=O)[C@]2(O)O[C@@H](CC[C@H]2C)C[C@H](OC)/C(C)=C/C=C/C=C/[C@@H](C)C[C@@H](C)C(=O)[C@H](OC)[C@H](O)/C(C)=C/[C@H]1C` [Compound 7, Rapamycin (E and Z)-24-(O-ethyloxime)], the “fold loss in affinity (vs rapamycin)” value under setting [1] is given as 1287. For the same molecule, the IC50 under setting [2] came out at 2960 nM.

For the molecule `COC1CC2CCC(C)C(O)(O2)C(=O)C(=O)N2CCCCC2C(=O)OC(C(C)CC2CCC(O)C(OC)C2)CC(=NOCC(C)C)C(C)C=C(C)C(O)C(OC)C(=O)C(C)CC(C)C=CC=CC=C1C` (stereo not shown) [Compound 10, Rapamycin (E and Z)-24-(O-isobutyloxime)], the “fold loss in affinity (vs rapamycin)” value under setting [1] is 890.

Regarding `CO[C@H]1C[C@@H]2CC[C@@H](C)[C@@](O)(O2)C(=O)C(=O)N2CCCC[C@H]2C(=O)O[C@H]([C@H](C)C[C@@H]2CC[C@@H](O)[C@H](OC)C2)C/C(=N\OCc2ccccc2)[C@H](C)/C=C(\C)[C@@H](O)[C@@H](OC)C(=O)[C@H](C)C[C@H](C)/C=C/C=C/C=C/1C` [Compound 12, apamycin (E and Z)-24-(O-benzyloxime)], under setting [1], the “fold loss in affinity (vs rapamycin)” value worked out at 616. In addition, under setting [2], the IC50 was found to be 1420 nM.

With `COC1CC2CCC(C)C(O)(O2)C(=O)C(=O)N2CCCCC2C(=O)OC(C(C)CC2CCC(O)C(OC)C2)C/C(=N/O)C(C)C=C(C)C(O)C(OC)C(=O)C(C)CC(C)C=CC=CC=C1C` (stereo not shown) [Compound 17], the “fold loss in affinity (vs rapamycin)” value under setting [1] was 269. For the same molecule, the 50% inhibitory concentration (IC50) under setting [2] was determined as 618 nM.

In the case of `COC1CC2CCC(C)C(O)(O2)C(=O)C(=O)N2CCCCC2C(=O)OC(C(C)CC2CCC(O)C(OC)C2)C/C(=N\O)C(C)C=C(C)C(O)C(OC)C(=O)C(C)CC(C)C=CC=CC=C1C` (stereo not shown) [Compound 18], the “fold loss in affinity (vs rapamycin)” value under setting [1] is 25.7. In addition, the IC50 under setting [2] was determined as 59.1 nM.

Consider `COC1CC2CCC(C)C(O)(O2)C(=O)C(=O)N2CCCCC2C(=O)OC(C(C)CC2CCC(O)C(OC)C2)C/C(=N/OC(C)(C)C)C(C)C=C(C)C(O)C(OC)C(=O)C(C)CC(C)C=CC=CC=C1C` (stereo not shown) [Compound 19], for which, under setting [1], the “fold loss in affinity (vs rapamycin)” value is given as more than 13043. In addition, the IC50 under setting [2] was more than 30000 nM.

As for `COC1CC2CCC(C)C(O)(O2)C(=O)C(=O)N2CCCCC2C(=O)OC(C(C)CC2CCC(O)C(OC)C2)C/C(=N\OC(C)(C)C)C(C)C=C(C)C(O)C(OC)C(=O)C(C)CC(C)C=CC=CC=C1C` (stereo not shown) [Compound 20], the “fold loss in affinity (vs rapamycin)” value under setting [1] is given as 1046. Under setting [2], the IC50 stood at 2410 nM.

With `CCOC1C[C@@H]2CC[C@@H](C)[C@@](O)(O2)C(=O)C(=O)N2CCCC[C@H]2C(=O)OC([C@H](C)C[C@@H]2CC[C@@H](O)[C@H](OC)C2)CC(=O)[C@H](C)/C=C(\C)[C@@H](O)[C@@H](OC)C(=O)[C@H](C)C[C@H](C)/C=C/C=C/C=C/1C` (stereo partly shown) [Compound 27], under setting [3], the “fold loss in affinity (cf rapamycin)” value is listed as 1.1. The IC50 under setting [4] is 2.6 nM.

On to `CCOC1C[C@@H]2CC[C@@H](C)[C@@](O)(O2)C(=O)C(=O)N2CCCC[C@H]2C(=O)OC([C@H](C)C[C@@H]2CC[C@@H](O)[C@H](OC)C2)CC(=O)[C@H](C)/C=C(\C)[C@@H](O)[C@@H](OC)C(=O)[C@H](C)C[C@H](C)/C=C/C=C/C=C/1C` (stereo partly shown) [Compound 28], for which the “fold loss in affinity (cf rapamycin)” value under setting [3] was determined as 1.6. In addition, the 50% inhibitory concentration (IC50) under setting [4] turned out to be 3.7 nM.

Turning to `CO[C@@H]1C[C@H](C[C@@H](C)[C@@H]2CC(=O)[C@H](C)/C=C(\C)[C@@H](O)[C@@H](OC)C(=O)[C@H](C)C[C@H](C)/C=C/C=C/C=C(\C)[C@@H](OC(C)C)C[C@@H]3CC[C@@H](C)[C@@](O)(O3)C(=O)C(=O)N3CCCC[C@H]3C(=O)O2)CC[C@H]1O` [Compound 29], under setting [3], the “fold loss in affinity (cf rapamycin)” value came to 1.0. Further, the 50% inhibitory concentration (IC50) under setting [4] was determined as 2.2 nM.

With `COC(=O)N[C@@H]1C[C@@H]2CC[C@@H](C)[C@@](O)(O2)C(=O)C(=O)N2CCCC[C@H]2C(=O)O[C@H]([C@H](C)C[C@@H]2CC[C@@H](O)[C@H](OC)C2)CC(=O)[C@H](C)/C=C(\C)[C@@H](O)[C@@H](OC)C(=O)[C@H](C)C[C@H](C)/C=C/C=C/C=C/1C` [Compound 31], the “fold loss in affinity (cf rapamycin)” value under setting [3] stood at 1.1. Further, under setting [4], the IC50 was determined as 2.6 nM.

As for `COC(=O)N[C@H]1C[C@@H]2CC[C@@H](C)[C@@](O)(O2)C(=O)C(=O)N2CCCC[C@H]2C(=O)O[C@H]([C@H](C)C[C@@H]2CC[C@@H](O)[C@H](OC)C2)CC(=O)[C@H](C)/C=C(\C)[C@@H](O)[C@@H](OC)C(=O)[C@H](C)C[C@H](C)/C=C/C=C/C=C/1C` [Compound 32], the “fold loss in affinity (cf rapamycin)” value under setting [3] was determined as 1.9. For the same molecule, under setting [4], the IC50 is 4.3 nM.

Turning to `CO[C@@H]1C[C@H](C[C@@H](C)[C@@H]2CC(=O)[C@H](C)/C=C(\C)[C@@H](O)[C@@H](OC)C(=O)[C@H](C)C[C@H](C)/C=C/C=C/C=C(\C)[C@@H](NS(C)(=O)=O)C[C@@H]3CC[C@@H](C)[C@@](O)(O3)C(=O)C(=O)N3CCCC[C@H]3C(=O)O2)CC[C@H]1O` [Compound 33], the “fold loss in affinity (cf rapamycin)” value under setting [3] is 1.1. Besides, under setting [4], the IC50 is 2.5 nM.

`CO[C@@H]1C[C@H](C[C@@H](C)[C@@H]2CC(=O)[C@H](C)/C=C(\C)[C@@H](O)[C@@H](OC)C(=O)[C@H](C)C[C@H](C)/C=C/C=C/C=C(\C)[C@@H](c3ccco3)C[C@@H]3CC[C@@H](C)[C@@](O)(O3)C(=O)C(=O)N3CCCC[C@H]3C(=O)O2)CC[C@H]1O` [Compound 34]: the “fold loss in affinity (cf rapamycin)” value under setting [3] amounted to 12. This molecule also yielded an IC50 under setting [5] of 28 nM.

`CO[C@@H]1C[C@H](C[C@@H](C)[C@@H]2CC(=O)[C@H](C)/C=C(\C)[C@@H](O)[C@@H](OC)C(=O)[C@H](C)C[C@H](C)/C=C/C=C/C=C(\C)[C@H](c3ccco3)C[C@@H]3CC[C@@H](C)[C@@](O)(O3)C(=O)C(=O)N3CCCC[C@H]3C(=O)O2)CC[C@H]1O` [Compound 35]: under setting [3], the “fold loss in affinity (cf rapamycin)” value was 13. Moreover, the IC50 under setting [5] was 29 nM.

Turning to `CO[C@@H]1C[C@H](C[C@@H](C)[C@@H]2CC(=O)[C@H](C)/C=C(\C)[C@@H](O)[C@@H](OC)C(=O)[C@H](C)C[C@H](C)/C=C/C=C/C=C(\C)[C@@H](c3ccc(C)s3)C[C@@H]3CC[C@@H](C)[C@@](O)(O3)C(=O)C(=O)N3CCCC[C@H]3C(=O)O2)CC[C@H]1O` [Compound 36], the “fold loss in affinity (cf rapamycin)” value amounted to 1.6. The molecule further registered a 50% inhibitory concentration (IC50) under setting [6] of 3.7 nM.

Regarding `CO[C@@H]1C[C@H](C[C@@H](C)[C@@H]2CC(=O)[C@H](C)/C=C(\C)[C@@H](O)[C@@H](OC)C(=O)[C@H](C)C[C@H](C)/C=C/C=C/C=C(\C)[C@H](c3ccc(C)s3)C[C@@H]3CC[C@@H](C)[C@@](O)(O3)C(=O)C(=O)N3CCCC[C@H]3C(=O)O2)CC[C@H]1O` [Compound 37], the “fold loss in affinity (cf rapamycin)” value is reported as 1.9. This molecule yielded an IC50 under setting [6] of 4.3 nM.

With `CCc1ccc([C@H]2C[C@@H]3CC[C@@H](C)[C@@](O)(O3)C(=O)C(=O)N3CCCC[C@H]3C(=O)O[C@H]([C@H](C)C[C@@H]3CC[C@@H](O)[C@H](OC)C3)CC(=O)[C@H](C)/C=C(\C)[C@@H](O)[C@@H](OC)C(=O)[C@H](C)C[C@H](C)/C=C/C=C/C=C/2C)s1` [Compound 38], the “fold loss in affinity (cf rapamycin)” value under setting [3] was found to be 1.1. The IC50 under setting [4] was determined as 2.5 nM.
